Columns and labels:
[1] = molecular target: Sodium-dependent dopamine transporter (Rattus norvegicus, UniProt P23977); test: Inhibition of [3H]DA uptake at Dopamine transporter into rat nerve endings (synaptosomes); format: subcellular, Brain
[2] = molecular target: Norepinephrine transporter (Rattus norvegicus, UniProt Q9WTR4); test: Inhibition of norepinephrine transporter by inhibition of [3H]NE uptake into rat nerve endings (synaptosomes); format: subcellular, Brain
[3] = molecular target: Sodium-dependent serotonin transporter (Rattus norvegicus, UniProt P31652); test: Inhibition of [3H]5-HT uptake into rat synaptosomes by Serotonin transporter; format: functional, subcellular, Brain
Sequence of Sodium-dependent serotonin transporter (P31652 whole entry): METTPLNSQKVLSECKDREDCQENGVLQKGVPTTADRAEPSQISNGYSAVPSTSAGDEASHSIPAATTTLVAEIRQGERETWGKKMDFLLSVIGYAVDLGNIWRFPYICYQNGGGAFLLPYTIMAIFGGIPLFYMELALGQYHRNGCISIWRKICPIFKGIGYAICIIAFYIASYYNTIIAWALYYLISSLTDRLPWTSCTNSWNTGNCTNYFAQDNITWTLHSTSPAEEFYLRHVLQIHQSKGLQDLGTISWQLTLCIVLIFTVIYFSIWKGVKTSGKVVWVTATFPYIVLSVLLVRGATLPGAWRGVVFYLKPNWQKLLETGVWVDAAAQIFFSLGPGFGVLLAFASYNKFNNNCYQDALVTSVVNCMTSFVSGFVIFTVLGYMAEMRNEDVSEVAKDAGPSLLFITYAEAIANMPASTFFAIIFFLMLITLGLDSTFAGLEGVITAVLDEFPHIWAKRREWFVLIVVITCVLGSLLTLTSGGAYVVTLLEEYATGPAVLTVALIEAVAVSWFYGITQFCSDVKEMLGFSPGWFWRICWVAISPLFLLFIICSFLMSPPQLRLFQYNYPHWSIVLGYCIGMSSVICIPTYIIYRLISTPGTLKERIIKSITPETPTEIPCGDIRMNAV

[4] = molecular target: Monoamine transporters; serotonin & dopamine (Rattus norvegicus) (UniProt P31652+P23977); test: Ratio of selective inhibition of dopamine(DA) to serotonin(5-HT) was evaluated; format: protein assay
Sequence of Monoamine transporters; serotonin & dopamine (Rattus norvegicus) (P23977 whole entry, looked up): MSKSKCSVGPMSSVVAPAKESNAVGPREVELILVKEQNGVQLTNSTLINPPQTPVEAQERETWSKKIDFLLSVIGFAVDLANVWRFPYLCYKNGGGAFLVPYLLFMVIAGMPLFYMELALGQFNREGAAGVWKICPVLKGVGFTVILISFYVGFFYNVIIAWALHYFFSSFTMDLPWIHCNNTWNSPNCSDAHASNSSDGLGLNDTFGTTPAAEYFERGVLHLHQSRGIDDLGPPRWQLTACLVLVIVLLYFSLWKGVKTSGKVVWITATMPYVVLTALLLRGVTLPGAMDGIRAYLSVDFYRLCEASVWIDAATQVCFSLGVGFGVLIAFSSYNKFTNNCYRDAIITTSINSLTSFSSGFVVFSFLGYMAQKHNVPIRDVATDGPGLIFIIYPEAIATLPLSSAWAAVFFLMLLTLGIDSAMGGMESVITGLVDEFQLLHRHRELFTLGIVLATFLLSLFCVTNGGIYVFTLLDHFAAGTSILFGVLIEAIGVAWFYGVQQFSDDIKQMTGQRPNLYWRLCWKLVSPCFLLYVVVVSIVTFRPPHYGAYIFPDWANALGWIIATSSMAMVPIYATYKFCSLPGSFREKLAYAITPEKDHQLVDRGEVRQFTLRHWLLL
Sequence of Monoamine transporters; serotonin & dopamine (Rattus norvegicus) (P31652 whole entry, looked up): as the sequence (P31652 whole entry) above

Sequence of Sodium-dependent dopamine transporter (P23977 whole entry): as the sequence (P23977 whole entry, looked up) above
Sequence of Norepinephrine transporter (Q9WTR4 whole entry): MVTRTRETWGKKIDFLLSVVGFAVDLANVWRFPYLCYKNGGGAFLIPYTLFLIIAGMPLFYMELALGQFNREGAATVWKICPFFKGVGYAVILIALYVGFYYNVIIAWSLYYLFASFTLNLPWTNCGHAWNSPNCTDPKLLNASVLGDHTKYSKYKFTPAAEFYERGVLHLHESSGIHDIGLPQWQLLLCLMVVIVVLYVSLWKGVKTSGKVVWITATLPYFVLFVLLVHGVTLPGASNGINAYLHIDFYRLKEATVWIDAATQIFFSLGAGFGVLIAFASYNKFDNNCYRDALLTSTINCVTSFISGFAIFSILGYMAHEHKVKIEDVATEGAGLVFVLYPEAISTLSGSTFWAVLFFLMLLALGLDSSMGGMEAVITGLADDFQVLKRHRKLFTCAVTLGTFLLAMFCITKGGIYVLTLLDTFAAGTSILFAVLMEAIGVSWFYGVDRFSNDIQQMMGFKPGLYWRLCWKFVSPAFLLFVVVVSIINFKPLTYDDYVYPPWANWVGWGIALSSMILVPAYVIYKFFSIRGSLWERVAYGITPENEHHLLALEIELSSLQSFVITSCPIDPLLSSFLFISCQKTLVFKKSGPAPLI

CN1CC[C@@H](c2ccc(Cl)cc2)[C@H](C(=O)NCc2ccc(CNC(=O)CCc3ccccc3)cc2)C1
Ki [1]: > 2000 nM
Ki [2]: > 1000 nM
Ki [3]: 67 nM
Ratio [4]: > 30

CN1CC[C@@H](c2ccc(Cl)cc2)[C@H](C(=O)NCc2ccc(CNC(=O)c3ccc(Cl)cc3Cl)cc2)C1
Ki [3]: 139 nM

CN1CC[C@@H](c2ccc(Cl)cc2)[C@H](C(=O)NCc2ccc(CNC(=O)c3ccc(Cl)cc3)cc2)C1
Ki [1]: 3710 nM
Ki [2]: 1540 nM
Ki [3]: 84 nM
Ratio [4]: 44

CN1CC[C@@H](c2ccc(Cl)cc2)[C@H](C(=O)NCc2ccc(CNC(=O)c3cccc(Cl)c3)cc2)C1
Ki [1]: > 4000 nM
Ki [2]: 1040 nM
Ki [3]: 33 nM
Ratio [4]: > 121

COc1ccc(C(=O)NCc2ccc(CNC(=O)[C@@H]3CN(C)CC[C@H]3c3ccc(Cl)cc3)cc2)cc1
Ki [3]: 92 nM

CN1CC[C@@H](c2ccc(Cl)cc2)[C@H](C(=O)NCc2ccc(CNC(=O)c3ccc(C(F)(F)F)cc3)cc2)C1
Ki [1]: > 4000 nM
Ki [2]: 651 nM
Ki [3]: 334 nM
Ratio [4]: > 12

CN1CC[C@@H](c2ccc(Cl)cc2)[C@H](C(=O)NCc2ccc(CNC(=O)/C=C/c3ccc(Cl)cc3)cc2)C1
Ki [1]: > 2000 nM
Ki [2]: > 2000 nM
Ki [3]: 69 nM
Ratio [4]: > 29

CN1CC[C@@H](c2ccc(Cl)cc2)[C@H](C(=O)NCc2ccc(CNC(=O)c3cccc(C(F)(F)F)c3)cc2)C1
Ki [1]: > 5000 nM
Ki [2]: 508 nM
Ki [3]: 35 nM
Ratio [4]: > 143

CN1CC[C@@H](c2ccc(Cl)cc2)[C@H](C(=O)NCc2ccc(CNC(=O)c3ccccc3)cc2)C1
Ki [3]: 30 nM

CN1CC[C@@H](c2ccc(Cl)cc2)[C@H](C(=O)NCCCCCNC(=O)[C@@H]2CN(C)CC[C@H]2c2ccc(Cl)cc2)C1
Ki [1]: 1960 nM
Ki [2]: 399 nM
Ki [3]: 1.2 nM
Ratio [4]: 1630

CN1CC[C@@H](c2ccc(Cl)cc2)[C@H](C(=O)NCc2ccc(CNC(=O)[C@@H]3CN(C)CC[C@H]3c3ccc(Cl)cc3)cc2)C1
Ki [1]: 2270 nM
Ki [2]: 74 nM
Ki [3]: 0.32 nM
Ratio [4]: > 7000

Cc1ccc(C(=O)NCc2ccc(CNC(=O)[C@@H]3CN(C)CC[C@H]3c3ccc(Cl)cc3)cc2)cc1
Ki [1]: > 7000 nM
Ki [2]: > 1000 nM
Ki [3]: 195 nM
Ratio [4]: > 36
